What all share (assay): relative viability (nuclei count vs DMSO), 5 days (fraction); higher = more cells survive
Compound in one test: C1CC2=C(C1)C=C(C=C2)OC3=NC(=C4C(=N3)N(C=N4)CC5=CC=C(C=C5)C6=CC=CC=C6)N[C@@H](CC7=CC=CC=C7)CO [QS11]
The method in brief:
(§1)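 Hoechst staining, done together with fixation and permeabilisation, marked nuclei for 4× imaging and MetaXpress counting. This followed 5 days without medium change after lung cancer cell lines, kept overnight at 37 °C in 1536-well plates, were pinned with five library-drug doses (not always all listed) spaced by √10 on vehicle-anchored plates. Viability is the ratio of treated-well to vehicle-well nuclei, expressed as a median across plates. Plates passed only at control CV below 25% with at least one doubling.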

Compound in another test: CC1=C(C=C(C=C1)NC(=O)C2=CC(=CC=C2)C(C)(C)C#N)NC3=CC4=C(C=C3)N=CN(C4=O)C [AZ628]
The method in brief:
as §1

Compound in a further test: C[As](C)SC[C@H](NC(=O)CC[C@H](N)C(=O)O)C(=O)NCC(=O)O [Darinaparsin]
The method in brief: as §1

Compound in the test “QS11 + Alpelisib”: C1CC2=C(C1)C=C(C=C2)OC3=NC(=C4C(=N3)N(C=N4)CC5=CC=C(C=C5)C6=CC=CC=C6)N[C@@H](CC7=CC=CC=C7)CO [QS11] + Cc1nc(NC(=O)N2CCC[C@H]2C(N)=O)sc1-c1ccnc(C(C)(C)C(F)(F)F)c1 [Alpelisib] (partner 2 µM)
The method in brief:
(§2)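 Lung cancer cell lines in 1536-well plates were dosed by pin tool the day after seeding, either with one drug alone or with a fixed anchor-drug dose plus five library-drug doses (not always all listed) in √10 steps. After 5 days, cells were fixed and their nuclei stained in one step (final 0.05% Triton X-100, 1% formaldehyde, 1 ug/ml Hoechst), then counted on 4× images. Relative viability is the nuclei count in treated wells divided by that in vehicle wells. Values are medians of duplicate plates.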

Compound in the test “QS11 + AZD7762”: C1CC2=C(C1)C=C(C=C2)OC3=NC(=C4C(=N3)N(C=N4)CC5=CC=C(C=C5)C6=CC=CC=C6)N[C@@H](CC7=CC=CC=C7)CO [QS11] + NC(=O)Nc1cc(-c2cccc(F)c2)sc1C(=O)N[C@H]1CCCNC1 [AZD7762] (partner 0.2 µM)
The essentials:
as §2

Results on one cell line are retold here after the supplement of paper PMC10307832.

Consider LCLC-97TM1, for which the relative viability with QS11 (0.253 µM) worked out at 1.15; with QS11 (2.53 µM), 0.998; with QS11 (8 µM), 0.84; in the test with AZ628 (0.08 µM), 1.17; with AZ628 (0.253 µM), 0.849; with AZ628 (0.8 µM), 0.765. The relative viability in the test with AZ628 (2.53 µM) is 0.761; in the test with AZ628 (8 µM) it was 0.199; with Darinaparsin (0.08 µM) it was 1.13; with Darinaparsin (0.8 µM), 0.834; with Darinaparsin (2.53 µM), 1; with Darinaparsin (8 µM), 1.02. Also, the relative viability with QS11 + Alpelisib (first compound 0.08 µM) came to 0.225; with QS11 + Alpelisib (first compound 0.253 µM) it was 0.233; with QS11 + Alpelisib (first compound 0.8 µM), 0.201; in the test with QS11 + Alpelisib (first compound 2.53 µM), 0.323; with QS11 + Alpelisib (first compound 8 µM), 0.299; with QS11 + AZD7762 (first compound 0.253 µM), 0.192. In addition, the results for the relative viability with QS11 + AZD7762 (first compound 2.53 µM) and with QS11 + AZD7762 (first compound 8 µM) were 0.27 and 0.418, respectively.
